Source: the NIST ThermoML archive (doi:10.1021/acs.jced.5b00251)

Assay: refractive index (other wavelength) (dimensionless); xn = mol fraction of the nth substance listed
Conditions: 101 kPa, Liquid, Standard Abbe refractometry

CC(C)Cc1ccccc1 [(2-methylpropyl)benzene] + c1ccc2c(c1)CCCC2
refractive index
Conditions	x2 = 0.1014	x2 = 0.2024	x2 = 0.3032	x2 = 0.4036	x2 = 0.5038	x2 = 0.6036	x2 = 0.7032	x2 = 0.8024	x2 = 0.9014
308.15 K, Wavelength=436.1 nm	1.50202	1.50759	1.5129	1.51879	1.52412	1.53042	1.53639	1.5425	1.54823
308.15 K, Wavelength=513.9 nm	1.49045	1.49591	1.50103	1.50671	1.51215	1.51765	1.52366	1.52953	1.53505
308.15 K, Wavelength=589.3 nm	1.48428	1.48939	1.49461	1.49955	1.50515	1.51099	1.51661	1.52237	1.52797
308.15 K, Wavelength=633.2 nm	1.48142	1.48659	1.4917	1.49701	1.50224	1.50811	1.51368	1.51941	1.52477
308.15 K, Wavelength=657.2 nm	1.48038	1.48538	1.49085	1.49669	1.50224	1.50738	1.51272	1.51825	1.52447
313.15 K, Wavelength=436.1 nm	1.49957	1.5048	1.51044	1.51631	1.52152	1.52806	1.53388	1.54002	1.54572
313.15 K, Wavelength=513.9 nm	1.48816	1.49321	1.49885	1.50413	1.50976	1.51512	1.52123	1.52715	1.53263
313.15 K, Wavelength=589.3 nm	1.48198	1.48705	1.49215	1.49702	1.50259	1.50845	1.51422	1.52003	1.52558
313.15 K, Wavelength=633.2 nm	1.47918	1.48409	1.48957	1.49422	1.49959	1.50542	1.51132	1.51708	1.52248
313.15 K, Wavelength=657.2 nm	1.47807	1.48312	1.48866	1.49418	1.49947	1.50491	1.51025	1.51573	1.52168
318.15 K, Wavelength=436.1 nm	1.49678	1.50247	1.50783	1.51372	1.51897	1.52533	1.53125	1.53748	1.54301
318.15 K, Wavelength=513.9 nm	1.48564	1.49078	1.49611	1.50143	1.50751	1.51299	1.51892	1.52466	1.53007
318.15 K, Wavelength=589.3 nm	1.47955	1.48455	1.48962	1.49455	1.49987	1.50614	1.51175	1.51758	1.52287
318.15 K, Wavelength=633.2 nm	1.47656	1.48179	1.4869	1.49181	1.49721	1.50325	1.50887	1.51464	1.51989
318.15 K, Wavelength=657.2 nm	1.47562	1.48056	1.48595	1.49181	1.49685	1.50222	1.50758	1.51388	1.51897
